Structures are written as SMILES.

Here are results for 90 compounds from a melting point compilation (Tetko et al.; mined from patent text by program, amines drawn as free bases though some values may be those of a salt).

The melting point is the temperature of the solid-liquid transition. `O=C(C=Cc1ccccc1-c1ccccc1)c1ccccc1` registered a melting point of 190 °C.
For the compound `Nc1nc(NCCC23CC4CC(CC(C4)C2)C3)nc2c1ncn2C1OC(CO)C(O)C1O` (stereo not given), the melting point is 145 to 147 °C.
In turn, `CO[C@@H]1CC[C@@H](NC(C)=O)c2ccccc21` (relative stereo) returned a melting point of 97 to 100 °C.
In the case of `Cc1ccc(Cl)cc1NC(=S)Nc1c(C)nn(C)c1C` it was 176 to 177 °C; in that of `CC(C)(C)C(=O)Nc1c[nH]nc1C(=O)NCCC#N`, 165 to 166 °C; in that of `CCOC(=O)C(=O)Nc1c([N+](=O)[O-])cc(Br)c2c1CN(C)C2`, 153 to 154 °C.
In turn, `CCCCCC1CCC(c2ccc(C(=O)O)cc2)CC1` (stereo not given) returned a melting point of 30 °C.
`CCn1c(CCO)nc(C2CC2)c1Sc1cc(C#N)cc(C#N)c1`: the melting point is 122 to 124 °C.
In the case of `CCc1[nH]c(=O)[nH]c1C(=O)C(C)C` it was 206 to 208 °C.
`CCCCOc1nn(-c2ccc(C(F)(F)F)cn2)cc1CCCOc1ccc(CCC(=O)O)c(OCC)c1` displayed a melting point of 102 to 103 °C.
`O=C(O)c1cc(F)c(F)c(C2CC2)c1F` showed a melting point of 95 to 97 °C.
Turning to `O[C@H]1CSC(c2ccccc2)=N[C@@H]1c1ccccc1` (racemic), the melting point amounted to 142 °C.
As for `CCCCOC(=O)c1c(N)c2cccnc2n(CC)c1=O`, the melting point was 117 to 120 °C.
Under `Cc1ccccc1-n1c(CC(O)c2ccccc2)nc2ccccc2c1=O` (stereo not given) stands 119 °C.
Regarding `O=S1(=O)c2cccc3cccc(c23)N1CCCCN1CC=C(c2c[nH]c3ccccc23)CC1`, the melting point was determined as 203 °C.
`Cn1nc(C(F)(F)F)cc1Oc1cccc(-c2nc(C(F)(F)F)no2)n1` displayed a melting point of 91 to 93 °C.
Turning to `CCOC(=O)/C=C/c1cc(OCc2ccccc2)ccc1Br`, the melting point lay in the range of 72 to 74 °C.
Under `COCC(=O)Nc1c(C(=O)c2cccc(C)c2)[nH]c2ccc([N+](=O)[O-])cc12` stands 155 to 157 °C; under `CC(=O)SCC(Cc1ccccc1)C(=O)Nc1ccc(C(=O)O)c(O)c1` (stereo not given), 141 to 142 °C.
`COC(=O)[C@H]1C[C@H](C(=O)O)Nc2cc(Br)cc(Br)c21` (relative stereo) came in with a melting point of 171 to 173 °C.
As for `COc1ccc(-n2cc(C)cc2-c2ccc(S(N)(=O)=O)cc2)cc1`, the melting point was 63 to 64 °C.
Turning to `CON=C(c1cc(C)no1)c1ccccc1CON=C(C)c1ccc(Cl)c(Cl)c1`, the melting point is 84 to 85 °C.
For the compound `CC(C#N)c1c(Cl)cc([N+](=O)[O-])cc1Cl` (stereo not given), the melting point came out at 72 °C.
In turn, `COc1ccc(/C=C/C(=O)Nc2ccc(C(=O)O)cc2)cc1OC` yielded a melting point of 258 to 259 °C.
Under `CCc1nc(C)c(CCC(=O)N(CC)CC)c(=O)n1Cc1ccc(-c2ccccc2-c2nnn[nH]2)cc1` stands 100 to 105 °C; under `N=C(Nc1ccc(CCCC(=O)Nc2ccccc2)cc1)N1CCCC1`, 164 to 165 °C; under `O=c1cc(-c2cccs2)oc2cccc(OCCO)c12`, 160 to 162 °C.
`CCOCc1nc2c(N)nc3c4c2n1[C@@H](C)CN4CCC3`: the melting point is 164 to 166 °C.
`CCC(O)c1ccc(Cc2c(Cl)cc(N3N=CCNC3=O)cc2Cl)cc1` (stereo not given) gave a melting point of 148 to 149 °C.
As to `CN1C(=O)N(c2ccc(C#N)c(C(F)(F)F)c2)C(=O)C1(CF)CF`, the melting point fell in the range of 137 to 138 °C.
In the case of `O=c1[nH]c2cc(F)c([N+](=O)[O-])cc2o1` it was 207 to 209 °C.
`CC1(C)CNC(=O)c2c1ccc1nc(Nc3c(Cl)cccc3Cl)[nH]c21` showed a melting point of 287 to 290 °C.
Compound `Cc1cc(C)cc(Sc2c(C)c[nH]c(=O)c2NC=O)c1` registered a melting point of 221 to 222 °C.
`CC#CCOc1ccc(S(=O)(=O)N(C)C(C(=O)NO)C(C)(C)SCCn2ccnc2)cc1` (stereo not given) gave a melting point of 97 to 100 °C.
`Cc1cc(OCc2ccccc2)ccc1CC#N` came in with a melting point of 51 to 52 °C.
In turn, `COc1cc(OCc2ccccn2)ccc1/C=C/c1cc(/C=C/c2ccc3c(c2)OCO3)n[nH]1` gave a melting point of 218 to 220 °C.
With `CCCOc1ccccc1-c1nc2nc(OC)ncc2c(=O)[nH]1`, the melting point was 231 °C.
As for `Cc1cc(NC(=O)C(=O)N2CCCCC2)cc(C)c1S(=O)(=O)C[N+](=O)[O-]`, the melting point fell in the range of 169 to 170 °C.
`Fc1ccc(Nc2nc(NC3CCOCC3)nc(OCC(F)(F)F)n2)cc1Cl` gave a melting point of 190 to 191 °C.
For `CCCNC(=O)N1c2ccc(S(=O)(=O)n3cc(-c4ccccc4)[nH]c3=O)cc2CC1C` (stereo not given), the melting point was 138 °C.
For `CCc1ccc2nc(-c3ccc(-c4ccccc4)cc3)c(N)c(C(=O)O)c2c1`, the melting point lay within 240 to 241 °C.
The compound `O=C(O)c1cnn2c1NC(c1ccccc1)CC2C(F)(F)F` (stereo not given) displayed a melting point of 185 °C.
In the case of `COC(=O)c1cn(-c2ccc(Oc3ccc(C)cc3O)cc2)nn1` it was 148 to 151 °C.
With `CC1(C)C(=O)Nc2ccc(-c3cccc([N+](=O)[O-])c3)cc21`, the melting point was 234 to 235 °C.
In turn, `O=C1CCN(c2ccc(CC3SC(=O)NC3=O)cc2F)CC1` (stereo not given) displayed a melting point of 129 to 130 °C.
As to `CCOC(=O)c1cc(CC)sc1Nc1cc(F)cc(F)c1[N+](=O)[O-]`, the melting point was in the range of 74 to 75 °C.
For the compound `CC(C)(O)c1cccc(-c2ccc3nc(-c4ccc(Cl)cc4)c(F)n3c2)c1`, the melting point lay in the range of 174 to 175 °C.
`O=C(NCc1cccc(C(F)(F)F)c1)c1ccc2n1Cc1ccccc1N(C(=O)CSc1ccc(Br)cc1)C2` gave a melting point of 102 °C.
`COc1cc2cc(-c3cccnc3)nc(-c3ccccc3)c2cc1OC` came in with a melting point of 176 to 177 °C.
Turning to `COCCOc1ccccc1S(=O)(=O)NC(=O)Nc1nc(Cl)cc(OC)n1`, the melting point was 166 to 168 °C.
As for `COc1ccc(O)c(CC=Cc2ccccc2C#N)c1`, the melting point was 72 to 74 °C.
For the compound `CC1(C)CCc2c(ccc3c2C(=O)C(Br)=C(O)C3=O)O1`, the melting point fell in the range of 213 to 216 °C.
The compound `CCOC(=O)C1(CC(N)=O)C(=O)N(Cc2ccc(Br)cc2F)C(=O)c2cccn21` (stereo not given) returned a melting point of 190 to 192 °C.
`CC(=O)/C=C(\C)c1ccc(-c2ccccc2F)cc1`: the melting point worked out at 92 °C.
With `CS(=O)(=O)c1cc(CCC(=O)O)nc(-c2nc(=O)c3ccc(F)cc3s2)c1`, the melting point was found to be 236 °C.
In the case of `COc1ccc(C=Cc2ccc3cccc(O)c3n2)cc1` it was 108 to 110 °C.
For `O=C(OC1CCCCC1)c1ncn2c1[C@@H]1CCN1C(=O)c1c(I)cccc1-2`, the melting point lay within 124 to 125 °C.
Under `COc1ccc(C(=O)NCC(O)CCl)cc1OC` (stereo not given) stands 104 to 106 °C; under `CCOC(=O)c1c[nH]cc1C(=O)OCC`, 148 to 149 °C.
The compound `CC(C)(C)c1cc(C=O)ccc1O` showed a melting point of 142 °C.
On to `CN(Cc1ccccc1)C1Cc2cccc3[nH]c(=O)n(c23)C1` (stereo not given), for which the melting point lay within 145 to 149 °C.
In the case of `Cc1ccc(-c2cccc(/C=C/C(=O)Nc3ccc(C(O)c4ccccn4)cc3)c2)cc1` (stereo not given), the melting point was 162 to 165 °C.
`CCc1cc(C(=O)OC)c(C2=NC(=O)C(C)(C(C)C)N2)nc1COC` (stereo not given): the melting point fell in the range of 87 to 90 °C.
In turn, `COc1cc2c(cc1OCc1ccccc1)CCN(C(=O)c1ccccc1OC)C2=O` displayed a melting point of 163 to 164 °C.
In the case of `Nc1nc(NCCN2CCC(Nc3nc4ccccc4n3Cc3ccc(F)cc3)CC2)ccc1[N+](=O)[O-]` it was 206 °C; in that of `Sc1nnc(-c2ccc3c(c2)CCO3)o1`, 219 to 221 °C; in that of `Nc1nccc(-c2cccc(OCC(O)CN3CCN(c4ccc(Cl)cc4)CC3)c2)n1` (stereo not given), 141 to 142 °C.
Under `NC(=O)N1CCCC2=C1CCc1cc(Cl)ccc12` stands 169 to 171 °C; under `COc1ccc2c(n1)C1(CO2)C(=O)Nc2cccc(Br)c21` (stereo not given), 265 to 268 °C; under `CC1=C(c2ccc(O)cc2)CCC(=O)N1`, 197 to 200 °C.
In the case of `OCC(O)(CO)c1ccc(F)cc1F`, the melting point lay in the range of 58 to 59 °C.
Consider `O=C1CN(Cc2ccc(CCn3cnc4cc(-c5ccc(Cl)cc5)sc4c3=O)cc2)CCN1`, for which the melting point was in the range of 232 to 234 °C.
In the case of `CCCCCCNC(=O)OCCCCCCCCCCCCNC(=O)OC1CCN(C(=O)O)CC1` it was 98 to 100 °C; in that of `CCCCc1nn(-c2cc([N+](=O)[O-])ccc2Br)c(=O)[nH]1`, 125 to 127 °C; in that of `CC(=O)n1c(=O)n(CCN2CCC(CC(=O)c3ccc(F)cc3)CC2)c2ccccc21`, 149 °C.
In the case of `COc1ccc(C(C)(C)CCC(=O)O)cc1NC(=O)C[C@H]1O[C@H](c2cccc(OC)c2OC)c2cc(Cl)ccc2N(CC(C)(C)CO)C1=O` it was 173 to 174 °C; in that of `Nc1ccc(F)c(O)c1`, 156 to 157 °C; in that of `CC1(C)C=C(N2Cc3ccccc3C2=O)c2cc(S(=O)(=O)C(F)(F)F)ccc2O1`, 110 to 115 °C.
`CN1CCN(C(c2ccc(Cl)cc2)c2ccccc2C(=O)O)CC1` (stereo not given) had a melting point of 144 to 150 °C.
The compound `CSC(C[N+](=O)[O-])NCCSCc1cc(C)c(CN(C)C)s1` (stereo not given) showed a melting point of 69 to 71 °C.
Under `N#CC(Cc1ccccn1)(c1ccc(F)cc1)c1ccc([N+](=O)[O-])c(C(F)(F)F)c1` (stereo not given) stands 118 to 119 °C.
Under `CCN1C(=O)N(c2ccc(C#N)c(C(F)(F)F)c2)C(=O)C1(CO)CO` stands 155 to 156 °C; under `CC(C)(C(=O)O)c1ccc(C(=O)Nc2cn3c4c(ccc3n2)OCC4)cc1`, 293 to 295 °C.
Under `CS(=O)(=O)N(Cc1ccncc1)Cc1ccccc1F` stands 69 to 70 °C; under `O=[N+]([O-])c1cc(Cl)c(Br)cc1Cl`, 50 to 53 °C.
`CN(Cc1ccc(NS(C)(=O)=O)cc1)C1CCN(c2ccc(NS(C)(=O)=O)cc2)CC1`: the melting point lay in the range of 177 to 179 °C.
In the case of `CC(C)NC(=O)N1CCC(CN2C(=O)C3(COc4cc5c(cc43)CCO5)c3ccccc32)C1` (stereo not given), the melting point lay within 107 to 115 °C.
For `COc1cc2ccc3c4cc5c(cc4cnc3c2cc1OC)OCO5`, the melting point lay in the range of 275 to 277 °C.
In turn, `Cc1ccc(C(=S)NN)cc1` showed a melting point of 140 to 142 °C.
Under `CCCCN(C)c1c(-c2ccc(OC)cc2)sc2ccccc12` stands 61 to 62 °C.
